Reference: article PMC8450399, “Expression Profiles and Functional Characterization of Chemosensory Protein 15 (HhalCSP15) in the Brown Marmorated Stink Bug Halyomorpha halys” (Frontiers in Physiology, 2021)

Key:
[1] = system: Halyomorpha halys antennae; experiment: Electroantennography (EAG) recordings; conditions: 10 μl of 100 μg/μl in paraffin oil; for EAG response of antennae (in words; comparison among nymphs, females, males): third instar nymphs and 1- to 3-day old male and female adults, solvent-corrected
Method: The antennal responses of H. halys to the three ligands of […]15 were evaluated using conventional EAG methods as described in previous study ([Wang et al., 2020]). Briefly, antennae of the third instar nymphs and 1- to 3-day old male and female adults were dissected, and a few terminal segments at the distal end were excised. The treated antennae were attached to electrode holders with electrode gel. Ten microliters of tested chemicals (100μg/μl, diluted in paraffin oil) were applied to filter paper strips (1.0cm×2.0cm) and inserted into a glass Pasteur pipette as a cartridge. The test cartridge was connected to a stimulus controller (CS-55; Syntech, Kirchzarten, Germany) that generated a 0.5s stimulus at 30s intervals, with a constant flow of 10ml/s. The signals generated by the antennae were recorded using EAG Pro (Syntech). A blank stimulus (solvent control) was presented before testing the compound. For each compound, EAG responses were recorded from eight antennae of different insects. The EAG responses elicited by the test odor stimuli were corrected by subtracting EAG response from the solvent control. The corrected EAG data were statistically analyzed using ANOVA followed by Tukey's HSD test.

HhalCSP15 = experiment: Fluorescence competitive binding assay with 1-NPN as fluorescent probe; set-up: species or system Halyomorpha halys; conditions: for Ki: Ki=IC50/(1+[1-NPN]/K1-NPN), HhalCSP15 and 1-NPN 2 μM, pH 7.4, triplicate, read-out: Ki, dissociation constant; for binding ability with HhalCSP15 (in words): fluorescence binding experiments
Method: The binding abilities of HhalCSP15 to 43 volatiles were measured on an F-380 fluorescence spectrophotometer (Tianjin, China) using 10-nm slits and a 1-cm light path. As the fluorescent probe, N-phenyl-1-naphthylamine (1-NPN) was excited at the wavelength of 337nm, and emission spectra were recorded between 390 and 530nm. To measure the affinity of 1-NPN to the HhalCSP15 protein, a 2-μM solution of purified protein in 50-mM Tris-HCl at pH 7.4 was titrated with aliquots of 1-mM 1-NPN dissolved in methanol to final concentrations ranging from 2 to 16μM.
[…] Dissociation constants of the competitors were calculated by the equation Ki=IC50/(1+[1-NPN]/K1-NPN), where IC50 is the concentration of ligands halving the initial fluorescence value of 1-NPN, [1-NPN] is the free concentration of 1-NPN, and K1-NPN is the dissociation constant of the HhalCSP15/1-NPN complex.

SMILES | EAG response of antennae (in words; comparison among nymphs, females, males) [1] | Ki (HhalCSP15) | binding ability with HhalCSP15 (in words) (HhalCSP15) | other results
CCC\C=C/C=C/C=C/C(=O)OC [Methyl (2E,4E,6Z)-decatrienoate] | significantly greater EAG responses in adults compared with nymphs | 9.6 ± 0.4 µM | identified as a binding ligand | 
CCCCCCC/C=C/C=O [trans-2-Decenal] |  |  | could not bind | 
CC/C=C\CCOC(=O)c1ccccc1 [cis-3-Hexen-1-yl benzoate] |  | 10.5 ± 0.8 µM | strong binding abilities | EAG response compared among ligands (in words) ([1]; nymphs and adults): highest EAG response among all ligands in both nymphs and adults; EAG response of antennae (in words; comparison among nymphs, females, males) ([1]; listed as Cis-3-hexen-1-yl benzoate): significantly greater responses in females compared with males and nymphs; EAG response of antennae (in words; comparison among nymphs, females, males) ([1]; listed as cis-3-hexen-1-yl benzoate): elicit an EAG response in both nymph and adult H. halys antennae
CC(=O)/C=C/C1=C(C)CCCC1(C)C [β-Ionone] | elicit an EAG response in both nymph and adult H. halys antennae | 11.9 ± 0.6 µM | strong binding abilities | EAG response of antennae (in words; comparison among nymphs, females, males) ([1]; listed as β-ionone): significantly greater responses in females compared with males and nymphs
c1ccc(Nc2cccc3ccccc23)cc1 [1-NPN, N-phenyl-1-naphthylamine, reference compound] |  |  |  | Kd (HhalCSP15; 2 μM protein in 50 mM Tris-HCl pH 7.4 titrated with 1-NPN 2 to 16 μM, read-out: dissociation constant of the HhalCSP15/1-NPN complex): 9.36 µM
CCCCCCCCCCCCC [Tridecane] |  |  | could not bind | 
